From ChEMBL document CHEMBL3784939, “Study on the synthesis and biological activities of α-substituted arylacetates derivatives” (Bioorg Med Chem Lett, 2016) come the findings set out here.

Converted amounts (≈) assume the structure as drawn. The source made the active and inactive calls. The calls are words filed in the database; no cut-off is given here.

One test has as its system NCI-H1650. The test can be described thus: Cytotoxicity against human NCI-H1650 cells after 72 hrs by MTT assay. The settings on record: NCI-H1650, 72 h. It is filed as functional, cell-based.
Test [1] is described as follows: Inhibition of alpha glucosidase (unknown origin) at 100 uM preincubated for 15 mins followed by p-nitrophenyl-alpha-D-glucopyranoside addition measured after 30 mins by spectrophotometric analysis. The settings on record: Homo sapiens.
Test [2] in a line: Cytotoxicity against human BCG823 cells after 72 hrs by MTT assay. Conditions: BCG823, 72 h. It is filed as functional, cell-based. On the technique in general: Tetrazolium assays rely on reduction of a dye to a coloured formazan, in cell work by metabolically active cells.
Test [3] concerns Rattus norvegicus. The test is described as follows: Hypoglycemic activity in diabetic rat model assessed as decrease in blood glucose level at 360 mg/kg, ig administered for 12 days measured on ninth day of compound dosing by glucometer relative to control. It is filed as functional. Conditions: po, 288 h.
The test system of test [4] is Rattus norvegicus. The test can be described thus: Hypoglycemic activity in diabetic rat model assessed as decrease in blood glucose level at 360 mg/kg, ig administered for 12 days measured on third day of compound dosing by glucometer relative to control. It is filed as functional. The settings on record: po, 288 h.
The nature of test [5]: Inhibition of alpha glucosidase (unknown origin) preincubated for 15 mins followed by p-nitrophenyl-alpha-D-glucopyranoside addition measured after 30 mins by spectrophotometric analysis. Also noted: species or system Homo sapiens.
The nature of test [6]: Cytotoxicity against human HCT116 cells after 72 hrs by MTT assay. The settings on record: HCT-116, 72 h. It is filed as functional, cell-based.
Test [7] relates to Rattus norvegicus. The test is described as follows: Hypoglycemic activity in diabetic rat model assessed as decrease in blood glucose level at 360 mg/kg, ig administered for 12 days measured on twelfth day by glucometer relative to control. It counts as functional. Conditions: po, 288 h.
In test [8] the test system is Rattus norvegicus. The test is described as follows: Hypoglycemic activity in diabetic rat model assessed as decrease in blood glucose level at 360 mg/kg, ig administered for 12 days measured on sixth day of compound dosing by glucometer relative to control. It is filed as functional. Conditions: po, 288 h.
Test [9] in a line: Noncompetitive inhibition of alpha glucosidase (unknown origin) preincubated for 15 mins followed by p-nitrophenyl-alpha-D-glucopyranoside addition measured after 30 mins by Lineweaver-Burk plot analysis. Also noted: species or system Homo sapiens.
Test [10] relates to Rattus norvegicus. The test can be described thus: Hypoglycemic activity in diabetic rat model assessed as blood glucose level at 360 mg/kg, ig administered for 12 days measured on day 9 of compound dosing by glucometer (reference value: 21.95 +/- 2.83 mmol/l). It is filed as functional.
The test system of test [11] is Rattus norvegicus. The test is described as follows: Hypoglycemic activity in diabetic rat model assessed as blood glucose level at 360 mg/kg, ig administered for 12 days measured on day 12 by glucometer (reference value: 21.95 +/- 2.83 mmol/l). It is filed as functional.

What is called IC50 is the midpoint of a concentration-inhibition curve. For orientation: inhibition means how much of the control response was suppressed. For orientation: inhibition in vivo means how much of the control response was suppressed. As to `CCOC(=O)C(COC(=O)/C=C/c1ccc(OC)c(OC)c1)c1ccc(F)cc1` (stereo unspecified), the IC50 in the test on NCI-H1650 is more than 0.01 µg/mL; in [2], more than 0.01 µg/mL; in test [5], 83.8 µM; in test [6], more than 0.01 µg/mL. The same compound showed an inhibition in test [1] of 47.8%. Moreover, the inhibition in vivo at 360 mg/kg with Rattus norvegicus [3] came to 7.86%; in the test with Rattus norvegicus [4] it was 7.86%; in the test with Rattus norvegicus [7], 19%; with Rattus norvegicus [8] it was 7.86%.

Regarding `COC(=O)C(CO)c1ccc(OC)cc1` (stereo unspecified), the IC50 (in the test on NCI-H1650; in [2]; in test [6]) was more than 0.01 µg/mL throughout. For the same compound, the inhibition entry in test [1] was “inactive”.

As for `CCOC(=O)C(COC(=O)/C=C/c1ccc(OC)c(OC)c1)c1ccc(C(F)(F)F)cc1` (stereo unspecified), the IC50 in the test with NCI-H1650 was more than 0.01 µg/mL; in test [2] it was more than 0.01 µg/mL; in test [5] it was 191 µM; in [6], more than 0.01 µg/mL. Further, the inhibition in [1] came to 29.9%.

For `COC(=O)C(C=O)c1ccccc1` (stereo unspecified), the IC50 was more than 0.01 µg/mL in the test on NCI-H1650, more than 0.01 µg/mL in test [2], more than 200 µM in test [5] and more than 0.01 µg/mL in test [6]. In [1], the inhibition came to 15.3%.

Consider `COC(=O)C(COC(=O)c1ccccc1OC(C)=O)c1ccccc1` (stereo unspecified), for which the IC50 was more than 0.01 µg/mL in the test on NCI-H1650, more than 0.01 µg/mL in [2], more than 200 µM in test [5] and more than 0.01 µg/mL in [6]. In test [1], this compound registered an inhibition of 13.7%.

Take `COC(=O)C(C=O)c1ccc(OC)cc1` (stereo unspecified): the IC50 with NCI-H1650 was more than 0.01 µg/mL; in [2] it was more than 0.01 µg/mL; in test [5], more than 200 µM; in test [6] it was more than 0.01 µg/mL. For the same compound, in [1], the inhibition is 18.4%.

Broadly, the Ki is the dissociation constant of the complex between target and ligand, obtained from inhibition or displacement. High values mean weaker binding, low ones tighter binding. Consider `CCOC(=O)C(/C=N/NC(N)=S)c1ccc(F)cc1` (stereo unspecified), for which the IC50 in the test with NCI-H1650 was determined as 0.00198 µg/mL (≈ 0.00699 µM); in test [2], 0.00727 µg/mL (≈ 0.0257 µM); in test [5], 46.8 µM; in [6], 0.00191 µg/mL (≈ 0.00674 µM). In test [1], this compound came in with an inhibition of 65.3%. In addition, the inhibition in vivo at 360 mg/kg was 16.9% in the test on Rattus norvegicus [3], 10.3% in the test with Rattus norvegicus [4], 18.1% with Rattus norvegicus [7] and 7.86% with Rattus norvegicus [8]. This compound also displayed a Ki in [9] of 65.4 µM.

With `CCOC(=O)C(CO)c1ccc(C(F)(F)F)cc1` (stereo unspecified), the IC50 (with NCI-H1650; in [2]; in test [6]) was more than 0.01 µg/mL in each case. Also, in [1], the inhibition entry is “inactive”.

Turning to `COC(=O)C(/C=N/NC(N)=S)c1ccccc1` (stereo unspecified), the IC50 in the test with NCI-H1650 is 0.00325 µg/mL (≈ 0.0129 µM); in test [2] it was 0.00818 µg/mL (≈ 0.0325 µM); in [5], more than 200 µM; in [6], 0.00321 µg/mL (≈ 0.0128 µM). Further, the inhibition in test [1] is 19.8%.

Regarding `CCOC(=O)C(COC(=O)c1ccccc1)c1ccc(F)cc1` (stereo unspecified), the IC50 is more than 0.01 µg/mL in the test with NCI-H1650, more than 0.01 µg/mL in test [2], more than 200 µM in [5] and more than 0.01 µg/mL in [6]. This compound returned an inhibition in [1] of 27.3%.

In the case of `COC(=O)C(CO)c1ccccc1` (stereo unspecified), the IC50 is more than 0.01 µg/mL with NCI-H1650, more than 0.01 µg/mL in test [2], 186 µM in [5] and more than 0.01 µg/mL in test [6]. Further, the inhibition in test [1] came to 28.7%.

Regarding `CCOC(=O)C(C=O)c1ccc(F)cc1` (stereo unspecified), the IC50 in the test with NCI-H1650 was more than 0.01 µg/mL; in test [2], more than 0.01 µg/mL; in test [5], 183 µM; in test [6] it was more than 0.01 µg/mL. In test [1], the inhibition came to 20.4%.

With `CCOC(=O)C(COC(=O)c1ccccc1OC(C)=O)c1ccc(C(F)(F)F)cc1` (stereo unspecified), the IC50 with NCI-H1650 was more than 0.01 µg/mL; in test [2], more than 0.01 µg/mL; in test [5], more than 200 µM; in test [6], more than 0.01 µg/mL. The compound also had an inhibition in [1] of 14.1%.

Turning to `COC(=O)C(COC(=O)/C=C/c1ccc(OC)c(OC)c1)c1ccccc1` (stereo unspecified), the IC50 in the test with NCI-H1650 was more than 0.01 µg/mL; in [2] it was more than 0.01 µg/mL; in [5] it was more than 200 µM; in test [6], more than 0.01 µg/mL. Also, the inhibition in test [1] stood at 11.1%. The Activity was 20.44 mmol/L with Rattus norvegicus [10] and 20.76 mmol/L in the test on Rattus norvegicus [11]. Moreover, the inhibition in vivo at 360 mg/kg with Rattus norvegicus [4] and with Rattus norvegicus [8] was 7.86% throughout.

In the case of `CCOC(=O)C(/C=N/NC(N)=S)c1ccc(C(F)(F)F)cc1` (stereo unspecified), the IC50 in the test with NCI-H1650 is 0.00805 µg/mL (≈ 0.0241 µM); in test [2], more than 0.01 µg/mL; in [5] it was 137 µM; in test [6], 0.00367 µg/mL (≈ 0.011 µM). Moreover, in test [1], the inhibition stood at 34%.
